According to ChEMBL document CHEMBL5154705, “Discovery and mechanistic study of thiazole-4-acylsulfonamide derivatives as potent and orally active ChemR23 inhibitors with a long-acting effect in cynomolgus monkeys” (Bioorg Med Chem, 2022):

How the values were obtained:
Assay type in all cases: ADME, organism-based, Macaca fascicularis
[1] = AUC(0 to infinity) in cynomolgus monkey at 0.3 mg/kg, po; set-up: time infinity, dose 0.3 mg/kg, route po; conditions: in vivo
[2] = Tmax in cynomolgus monkey at 0.3 to 1 mg/kg, po; conditions: in vivo, dose 0.3-1 mg/kg
[3] = Tmax in cynomolgus monkey at 0.3 mg/kg, po; conditions: in vivo
[4] = Cmax in cynomolgus monkey at 0.3 mg/kg, po; set-up: dose 0.3 mg/kg, route po; conditions: in vivo
[5] = MRT in cynomolgus monkey at 0.3 to 1 mg/kg, po; conditions: in vivo, dose 0.3-1 mg/kg
[6] = Drug concentration in plasma of cynomolgus monkey at 30 mg/kg, po after 8 hrs
[7] = Drug concentration in cynomolgus monkey plasma at 1 mg/kg, po after 8 hrs
[8] = Drug concentration in cynomolgus monkey plasma at 0.3 mg/kg, po after 8 hrs
[9] = AUC(0 to infinity) in cynomolgus monkey at 0.3 to 1 mg/kg, po; set-up: route po; conditions: in vivo, dose 0.3-1 mg/kg
[10] = Half life in cynomolgus monkey at 0.3 to 1 mg/kg, po; conditions: in vivo, dose 0.3-1 mg/kg
[11] = Drug concentration in plasma of cynomolgus monkey at 30 mg/kg, po after 4 hrs
[12] = Drug concentration in plasma of cynomolgus monkey at 30 mg/kg, po after 6 hrs
[13] = Half life in cynomolgus monkey at 0.3 mg/kg, po; conditions: in vivo
[14] = Cmax in cynomolgus monkey at 0.3 to 1 mg/kg, po; set-up: route po; conditions: in vivo, dose 0.3-1 mg/kg
[15] = MRT in cynomolgus monkey at 0.3 mg/kg, po; conditions: in vivo

AUC(0-inf) [1]: 10200 ng·h/mL
Tmax [2]: 2.7 h
Tmax [3]: 3.3 h
Cmax [4]: 1370 ng/mL
MRT [5]: 6 h
concentration at 8 h [6]: 177 µM
concentration at 8 h [7]: 2580 ng/mL
concentration at 8 h [8]: 403 ng/mL
AUC(0-inf) [9]: 53700 ng·h/mL
half-life [10]: 3.1 h
concentration at 4 h [11]: 332 µM
concentration at 6 h [12]: 233 µM
half-life [13]: 3.3 h
Cmax [14]: 6960 ng/mL
MRT [15]: 5.4 h
SMILES: Cc1ccc(-c2nc(=O)o[nH]2)c(-c2ccc([C@@H](C)N(CC3CC3)c3nc(C(=O)NS(=O)(=O)C4CC4)c(C4CC4)s3)cc2)c1
